Data reported in patent US8778974B2, “Trisubstituted 1,2,4 triazoles” (Janssen Pharmaceutica NV, priority 2008, dated 2014).

Assays:
[1] = target: T1, hα7-wt nAChR-expressing GH4Cl cells (Homo sapiens, UniProt P36544); experiment: Patch-clamp current recording (whole-cell), potentiation of choline 1 mM response, PAM type; format: cell-based; set-up: key to Pam type: Type 0 compounds minimally enhance the effect size of the current elicited by 1 mM choline.; Type 1 compounds enhance the effect size of the current elicited by 1 mM choline but minimally alter the kinetics of the receptor.; Type 2 compounds enhance the effect size of the current elicited by 1 mM choline while reducing the rate and/or the extent of desensitization.; Type 3 compounds enhance the effect size of the current elicited by 1 mM choline. When tested at higher concentrations up to 10 μM they completely inhibit desensitization, in particular a 1 mM choline application of 250 milliseconds.; Type 4 compounds allow for an initial desensitization of the receptor followed by a re-opening of the receptor during agonist application; details: for EC50: according to Ex. D.2, "<5" = no top plateau reached at maximal concentration, read-out: Potency (pEC50) (converted); for Pam type: patch-clamp current recording, 1 mM choline
T1 construct: expressed in transfected cells
Experimental: The compounds of the present invention are classified as type 1-4, based on qualitative kinetic properties, as determined by whole-cell voltage-clamp recordings. This classification is based on the effect of an α7 PAM compound, as described hereinbefore, on the signal elicited by an agonist application. In particular, said agonist is choline at a concentration of 1 mM. In a preferred experimental setting, said α7 PAM compound and choline are simultaneously applied to the cell, as described hereinafter. Desensitization is defined as the closure of the receptor upon activation during the application of the agonist in whole-cell voltage-clamp electrophysiology measurements seen as the reduction of the […] current after initial activation by the agonist.
The definition of the PAM types 1-4 is described hereinafter: • Type 0 compounds minimally enhance the effect size of the current elicited by 1 mM choline. • Type 1 compounds enhance the effect size of the current elicited by 1 mM choline but minimally alter the kinetics of the receptor. In particular, the rate and the extent of desensitization, elicited by the agonist, is not affected. The compound-modulated response to 1 mM choline, therefore, is a close to linear scaling of the 1 mM choline response in absence of the α7 PAM compound. • Type 2 compounds enhance the effect size of the current elicited by 1 mM choline while reducing the rate and/or the extent of desensitization. • Type 3 compounds enhance the effect size of the current elicited by 1 mM choline. […] At low-potency concentrations of the α7 PAM compound, the agonist-induced activation, which is followed by desensitization, can still be separated from the compound-induced re-opening as an initial inward current-maximum. At higher potency concentrations of the α7 PAM compound, the re-opening occurs faster than the closure due to desensitization so that the initial current-maximum disappears.
Patch-clamp Current Recording
Patch-clamp recording from mammalian cells has provided a powerful means of assessing the function of membrane-bound proteins thought to be subunits of ligand-gated ion channels. Activation of such proteins by endogenous or exogenous ligands cause opening of a pore associated with the receptor through which ions flow down their electrochemical gradient. In the case of the hα7-wt nAChR-expressing GH4Cl recombinant cell line the preferential permeability to calcium of this receptor means that calcium flows into the cell upon activation by ACh, choline and other nicotinic ligands giving rise to a calcium current. Since this receptor rapidly desensitizes in the presence of agonist it is important an application system is used which is capable of very rapid switching of solutions (<100 ms) to prevent partial or full desensitisation of receptor responses coincident with the time of agonist application. Consequently, a second convenient technique to assess the enhancement of nicotinic efficacy is patch-clamp recording from hα7-wt nAChR-expressing GH4Cl cells coupled with a rapid-application system.
• a) Assay buffers • The external recording solution consisted of 152 mM NaCl, 5 mM KCl, 1 mM MgCl2, 1 mM Calcium, 10 mM HEPES; pH 7.3. The internal recording solution consisted of 140 mM CsCl, 10 mM HEPES, 10 mM EGTA, 1 mM MgCl2, pH 7.3. • b) Patch-clamp recording was carried out using a Patch-clamp amplifier (Multiclamp 700A, Axon Instruments, Calif., USA). hα7-wt nAChR-expressing GH4Cl cells were patch-clamp in the whole cell configuration (Hamill et al, 1981) with a borosilicate glass electrode of 1.5-3 MΩ tip resistance when filled with the internal recording solution. Recordings were made on cells with membrane resistance >500 MΩ and more preferably 1GΩ and series resistance <15 MΩ with at least 60% series resistance compensation. […]

T1 sequence (P36544 23-502): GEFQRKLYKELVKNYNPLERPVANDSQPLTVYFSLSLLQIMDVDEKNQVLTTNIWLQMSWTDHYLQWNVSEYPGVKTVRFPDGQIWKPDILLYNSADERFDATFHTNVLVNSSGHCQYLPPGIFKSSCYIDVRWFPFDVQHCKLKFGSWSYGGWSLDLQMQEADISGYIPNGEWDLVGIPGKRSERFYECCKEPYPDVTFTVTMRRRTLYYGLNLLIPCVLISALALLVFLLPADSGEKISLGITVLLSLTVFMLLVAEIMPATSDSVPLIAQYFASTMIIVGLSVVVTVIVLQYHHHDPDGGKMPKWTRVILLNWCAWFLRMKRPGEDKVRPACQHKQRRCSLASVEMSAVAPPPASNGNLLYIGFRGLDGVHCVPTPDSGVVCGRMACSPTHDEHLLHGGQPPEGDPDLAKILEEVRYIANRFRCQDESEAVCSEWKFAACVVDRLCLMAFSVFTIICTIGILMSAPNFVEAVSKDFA

SMILES | melting point | EC50 [1] | Pam type [1]
COc1ncccc1-n1nc(Nc2cccc(OC(F)(F)F)c2)nc1CCC(=O)N(C)C [E4, 1-(2-Methoxy-3-pyridinyl)-N,N-dimethyl-3-[[3-(trifluoromethoxy)phenyl]amino]-1H-1,2,4-triazole-5-propanamide] | 166.7 °C | 3.8 µM | –
CNc1ncccc1-n1nc(Nc2cccc(OC(F)(F)F)c2)nc1CCC(=O)N(C)C [E6, N,N-Dimethyl-1-[2-(methylamino)-3-pyridinyl]-3-[[3-(trifluoromethoxy)phenyl]amino]-1H-1,2,4-triazole-5-propanamide] | 212.8 °C | 0.851 µM | –
Cc1cc(-n2nc(Nc3ccc(F)c(C(F)(F)F)c3)nc2CCCO)ccn1 [E7, 3-[[4-Fluoro-3-(trifluoromethyl)phenyl]amino]-1-(2-methyl-4-pyridinyl)-1H-1,2,4-triazole-5-propanol] | 197.6 °C | 1 µM | 2
Cc1cc(-n2nc(Nc3ccc(F)c(C(F)(F)F)c3)nc2CCCF)ccn1 [E8, 5-(3-Fluoropropyl)-N-[4-fluoro-3-(trifluoromethyl)phenyl]-1-(2-methyl-4-pyridinyl)-1H-1,2,4-triazol-3-amine] | 191.5 °C | 0.513 µM | 0
Cc1cc(-n2nc(Nc3ccc(F)c(C(F)(F)F)c3)nc2CCCCl)ccn1 [E9, 5-(3-chloropropyl)-N-[4-fluoro-3-(trifluoromethyl)phenyl]-1-(2-methyl-4-pyridinyl)-1H-1,2,4-triazol-3-amine] | 182.8 °C | 0.437 µM | –
Cc1cc(-n2nc(Nc3ccc(F)c(C(F)(F)F)c3)nc2CC(C)O)ccn1 (stereo not drawn) [E10, 3-[[4-Fluoro-3-(trifluoromethyl)phenyl]amino]-alpha-methyl-1-(2-methyl-4-pyridinyl)-, (alphaS)-1H-1,2,4-triazole-5-ethanol] | 192.7 °C | 1.05 µM | 2
COCCCc1nc(Nc2ccc(F)c(C(F)(F)F)c2)nn1-c1ccncc1Cl [E12, 1-(3-Chloro-4-pyridinyl)-N-[4-fluoro-3-(trifluoromethyl)phenyl]-5-(3-methoxypropyl)-1H-1,2,4-triazol-3-amine] | 105.3 °C | 2.24 µM | –
COCCc1nc(Nc2ccc(F)c(C(F)(F)F)c2)nn1-c1ccnc(C)c1 [E13] | 170.4 °C | 0.24 µM | 0
OCCCc1nc(Nc2ccc(F)c(C(F)(F)F)c2)nn1-c1ccncc1Cl [E14] | 152.9 °C | 3.98 µM | –
COCCCc1nc(Nc2ccc(F)c(C(F)(F)F)c2)nn1-c1ccnc(C)c1 [E15] | 141.4 °C | 0.11 µM | 0
C[C@H](O)Cc1nc(Nc2ccc(F)c(F)c2)nn1-c1cccc(F)c1 [E17] | 177.1 °C | 3.55 µM | –
C[C@H](O)Cc1nc(Nc2ccc(F)c(C(F)(F)F)c2)nn1-c1cccc(F)c1 [E18] | 161 °C | 3.31 µM | –
C[C@H](O)Cc1nc(Nc2ccc(F)c(C(F)(F)F)c2)nn1-c1ccc(F)cc1 [E20] | 170.4 °C | 4.47 µM | –
COc1ccc(-n2nc(Nc3ccc(F)c(F)c3)nc2C[C@H](C)O)cc1 [E21] | 181.4 °C | 1.78 µM | 1
COc1ccc(-n2nc(Nc3ccc(F)c(C(F)(F)F)c3)nc2C[C@H](C)O)cc1 [E22] | 188.7 °C | 0.851 µM | 0
Cc1cc(-n2nc(Nc3cccc(Cl)c3)nc2C[C@H](C)O)ccn1 [E23] | 185 °C | 2.19 µM | –
C[C@H](O)Cc1nc(Nc2ccc(F)c(C(F)(F)F)c2)nn1-c1ccncc1Cl [E25] | 150.3 °C | 4.79 µM | 2
CC[C@H](O)Cc1nc(Nc2ccc(F)c(F)c2)nn1-c1cccc(F)c1 [E27] | 158.1 °C | 1.91 µM | 1
CC[C@H](O)Cc1nc(Nc2ccc(F)c(F)c2)nn1-c1ccc(F)cc1 [E28] | 157.3 °C | 1.91 µM | 1

SMILES | melting point | EC50 [1] | Pam type [1]
CC[C@H](O)Cc1nc(Nc2ccc(F)c(F)c2)nn1-c1ccc(OC)cc1 [E29] | 117.6 °C | 1.15 µM | 1
CC[C@H](O)Cc1nc(Nc2ccc(F)c(F)c2)nn1-c1ccnc(C)c1 [E30] | 171.1 °C | 0.676 µM | 2
Cc1cc(-n2nc(Nc3ccc(F)c(C(F)(F)F)c3)nc2C(C)CO)ccn1 (centres unmarked) [E31] | 181.9 °C | 2.24 µM | 2
CNC(=O)Cc1nc(Nc2ccc(F)c(C(F)(F)F)c2)nn1-c1ccnc(C)c1 [E35] | 272.9 °C | 1.17 µM | 3
CNC(=O)CCc1nc(Nc2ccc(F)c(C(F)(F)F)c2)nn1-c1cccc(OC)c1 [E42] | 170.9 °C | 2.75 µM | –
CNC(=O)CCc1nc(Nc2cccc(OC(F)(F)F)c2)nn1-c1ccnc(C)c1 [E54] | 153.7 °C | 2.29 µM | 2
CN(C)C(=O)CCc1nc(Nc2ccc(F)c(F)c2)nn1-c1ccccc1Cl [E57] | 179.6 °C | 1.07 µM | 3
CN(C)C(=O)CCc1nc(Nc2ccc(F)c(F)c2)nn1-c1cccc(Cl)c1 [E58] | 165.4 °C | 0.339 µM | –
CN(C)C(=O)CCc1nc(Nc2ccc(F)c(F)c2)nn1-c1ccc(Cl)cc1 [E59] | 145.1 °C | 0.245 µM | 4
COc1cccc(-n2nc(Nc3cccc(OC(F)(F)F)c3)nc2CCC(=O)N(C)C)c1 [E60] | 133.5 °C | 0.282 µM | 0
COc1cccc(-n2nc(Nc3ccc(F)c(C(F)(F)F)c3)nc2CCC(=O)N(C)C)c1 [E61] | 173.6 °C | 0.0851 µM | –
Cc1cc(-n2nc(Nc3cccc(OC(F)(F)F)c3)nc2CCC(=O)N(C)C)ccn1 [E73] | 215.4 °C | 0.135 µM | 4
CN(C)C(=O)CCc1nc(Nc2ccc(F)c(C(F)(F)F)c2)nn1-c1ccncc1Cl [E74] | 181.7 °C | 0.0724 µM | 4
Cc1ccc(-n2nc(Nc3cccc(OC(F)(F)F)c3)nc2CCC(=O)N(C)C)cn1 [E75] | 174.3 °C | 0.186 µM | 4
CN(C)C(=O)CCc1nc(Nc2cccc(OC(F)(F)F)c2)nn1-c1cccnc1Cl [E76] | 145.7 °C | 0.407 µM | –
Cc1ncccc1-n1nc(Nc2ccc3c(c2)OC(F)(F)O3)nc1CCC(=O)N(C)C [E116] | 151.7 °C | 2.95 µM | –
CNC(=O)Cc1nc(Nc2ccc(F)c(F)c2F)nn1-c1cc(C)nc(C)c1 [E209] | – | 0.724 µM | 2
Cc1cc(-n2nc(Nc3cccc(C(F)(F)F)c3F)nc2CC(=O)NC2CC2)cc(C)n1 [E257, N-Cyclopropyl-1-(2,6-dimethyl-4-pyridinyl)-3-[[2-fluoro-3-(trifluoromethyl)phenyl]amino]-1H-1,2,4-triazole-5-acetamide] | 244.4 °C | – | –
Cc1cc(-n2nc(Nc3cc(F)c(F)c(F)c3)nc2CCC(=O)N(C)C)cc(C)n1 [E264] | – | ~0.0288 µM | –
